Patent US11236102B2, “Oxabicycloheptane prodrugs” (Lixte Biotechnology, Inc., priority 2015, dated 2022)
Several values for one entry are separate records, joined by “and”; a condition that tells them apart may be missing. Identical values can stand only once. Like-named read-outs stand apart in the source and are kept apart here.

Experiment: Pharmacokinetic study of 151 (iv, oral) in SD rats: 151 and 100 in plasma
Assay type: in vivo
Settings: for AUC(0-t): read-out: AUC0-t of 151; for AUC(0-inf): read-out: AUC0-∞ of 151
Protocol: The absolute bioavailability was evaluated.
To each sample, 160 μL of acetonitrile were added.
The mass spectrometer was operated in the positive mode.
Quantification was achieved by the external standard method.
Calibration Curve for Plasma Samples
LB100 concentrations of the LB151 plasma samples were also measured and pharmacokinetic parameters were calculated.

[1] = 151 IV 1.0 mg/kg, SD rats, individual rats, 1 mg/kg
[2] = male, Sprague-Dawley, rat, in vivo, iv, 1 mg/kg, plasma, 151 IV 1.0 mg/kg, SD rats, individual rats
[3] = male, Sprague-Dawley, rat, in vivo, iv, 1 mg/kg, plasma, 151 IV 1.0 mg/kg, SD rats, mean
[4] = male, Sprague-Dawley, rat, in vivo, po, 10 mg/kg, plasma, 151 PO 10 mg/kg, SD rats, individual rats
[5] = male, Sprague-Dawley, rat, in vivo, po, 10 mg/kg, plasma, 151 PO 10 mg/kg, SD rats, mean
[6] = plasma, 151 IV 1.0 mg/kg, SD rats, individual rats, 1 mg/kg
[7] = plasma, 151 PO 10 mg/kg, SD rats, individual rats, 10 mg/kg

COC(=O)C1C2CCC(O2)C1C(=O)N1CCN(C)CC1 (stereo not shown) [Compound 151]
151 plasma concentration (151 IV 1.0 mg/kg, SD rats, 0.083 h, individual rats, 1 mg/kg): 1301 ng/mL | 151 plasma concentration (151 IV 1.0 mg/kg, SD rats, 0.250 h, individual rats, 1 mg/kg): 949 ng/mL | 151 plasma concentration (151 IV 1.0 mg/kg, SD rats, 0.50 h, individual rats, 1 mg/kg): 607 ng/mL | 151 plasma concentration (151 IV 1.0 mg/kg, SD rats, 1.0 h, individual rats, 1 mg/kg): 314 ng/mL | 151 plasma concentration (151 IV 1.0 mg/kg, SD rats, 2.0 h, individual rats, 1 mg/kg): 103 ng/mL | 151 plasma concentration (151 IV 1.0 mg/kg, SD rats, 3.0 h, individual rats, 1 mg/kg): 28.1 ng/mL | 151 plasma concentration (151 IV 1.0 mg/kg, SD rats, 5.0 h, individual rats, 1 mg/kg): 9.75 ng/mL and 3.63 ng/mL | 151 plasma concentration (151 IV 1.0 mg/kg, SD rats, 7.0 h, individual rats, 1 mg/kg): 12.2 ng/mL and 1.83 ng/mL | 151 plasma concentration (151 IV 1.0 mg/kg, SD rats, 9.0 h, individual rats, 1 mg/kg): BLQ | 151 plasma concentration (151 IV 1.0 mg/kg, SD rats, 24 h, individual rats): BLQ | CL of 151 [1]: 955 mL/h/kg | Vss of 151 [1]: 775 mL/kg | F of 151 (151 PO 10 mg/kg vs IV 1.0 mg/kg, SD rats, mean, based on AUC0-∞): 54.6% | 151 plasma concentration (151 PO 10 mg/kg, SD rats, 0.25 h, individual rats, 10 mg/kg): 2029 ng/mL and 2731 ng/mL | 151 plasma concentration (151 PO 10 mg/kg, SD rats, 0.50 h, individual rats, 10 mg/kg): 3934 ng/mL and 3343 ng/mL | 151 plasma concentration (151 PO 10 mg/kg, SD rats, 1.0 h, individual rats, 10 mg/kg): 2581 ng/mL and 2538 ng/mL | 151 plasma concentration (151 PO 10 mg/kg, SD rats, 2.0 h, individual rats, 10 mg/kg): 1237 ng/mL and 1582 ng/mL | 151 plasma concentration (151 PO 10 mg/kg, SD rats, 3.0 h, individual rats, 10 mg/kg): 660 ng/mL and 794 ng/mL | 151 plasma concentration (151 PO 10 mg/kg, SD rats, 5.0 h, individual rats, 10 mg/kg): 99.4 ng/mL and 192 ng/mL | 151 plasma concentration (151 PO 10 mg/kg, SD rats, 7.0 h, individual rats, 10 mg/kg): 42.6 ng/mL and 20.7 ng/mL and 68.0 ng/mL | 151 plasma concentration (151 PO 10 mg/kg, SD rats, 9.0 h, individual rats, 10 mg/kg): 38.2 ng/mL and 66.1 ng/mL | 151 plasma concentration (151 PO 10 mg/kg, SD rats, 24 h, individual rats): BLQ | time of peak plasma concentration (151 oral 10 mg/kg, SD rats (n=3)): 0.5 h | concentration at 0.083 h (male, Sprague-Dawley, rat, in vivo, iv, 1 mg/kg, 151 IV 1.0 mg/kg, SD rats, 0.083 h, individual rats): 1680 ng/mL | concentration at 0.083 h (male, Sprague-Dawley, rat, in vivo, iv, 1 mg/kg, 151 IV 1.0 mg/kg, SD rats, 0.083 h, mean): 1490 ng/mL | concentration at 0.25 h (male, Sprague-Dawley, rat, in vivo, iv, 1 mg/kg, 151 IV 1.0 mg/kg, SD rats, 0.250 h, individual rats): 1160 ng/mL | concentration at 0.25 h (male, Sprague-Dawley, rat, in vivo, iv, 1 mg/kg, 151 IV 1.0 mg/kg, SD rats, 0.250 h, mean): 1060 ng/mL | concentration at 0.5 h (male, Sprague-Dawley, rat, in vivo, iv, 1 mg/kg, 151 IV 1.0 mg/kg, SD rats, 0.50 h, individual rats): 760 ng/mL | concentration at 0.5 h (male, Sprague-Dawley, rat, in vivo, iv, 1 mg/kg, 151 IV 1.0 mg/kg, SD rats, 0.50 h, mean): 683 ng/mL | concentration at 1 h (male, Sprague-Dawley, rat, in vivo, iv, 1 mg/kg, 151 IV 1.0 mg/kg, SD rats, 1.0 h, individual rats): 381 ng/mL | concentration at 1 h (male, Sprague-Dawley, rat, in vivo, iv, 1 mg/kg, 151 IV 1.0 mg/kg, SD rats, 1.0 h, mean): 348 ng/mL | concentration at 2 h (male, Sprague-Dawley, rat, in vivo, iv, 1 mg/kg, 151 IV 1.0 mg/kg, SD rats, 2.0 h, individual rats): 95.8 ng/mL | concentration at 2 h (male, Sprague-Dawley, rat, in vivo, iv, 1 mg/kg, 151 IV 1.0 mg/kg, SD rats, 2.0 h, mean): 99.6 ng/mL | concentration at 3 h (male, Sprague-Dawley, rat, in vivo, iv, 1 mg/kg, 151 IV 1.0 mg/kg, SD rats, 3.0 h, individual rats): 39.6 ng/mL | concentration at 3 h (male, Sprague-Dawley, rat, in vivo, iv, 1 mg/kg, 151 IV 1.0 mg/kg, SD rats, 3.0 h, mean): 33.8 ng/mL | concentration at 5 h (male, Sprague-Dawley, rat, in vivo, iv, 1 mg/kg, 151 IV 1.0 mg/kg, SD rats, 5.0 h, mean): 6.69 ng/mL | concentration at 7 h (male, Sprague-Dawley, rat, in vivo, iv, 1 mg/kg, 151 IV 1.0 mg/kg, SD rats, 7.0 h, mean): 7.02 ng/mL | concentration at 9 h (male, Sprague-Dawley, rat, in vivo, iv, 1 mg/kg, 151 IV 1.0 mg/kg, SD rats, 9.0 h, individual rats): 2.01 ng/mL | concentration at 9 h (male, Sprague-Dawley, rat, in vivo, iv, 1 mg/kg, 151 IV 1.0 mg/kg, SD rats, 9.0 h, mean): 1 ng/mL | clearance (male, Sprague-Dawley, rat, in vivo, iv, 1 mg/kg, 151 IV 1.0 mg/kg, SD rats, individual rats, read-out: CL of 151 (converted)): 12.7 mL/min/kg | Vd (male, Sprague-Dawley, rat, in vivo, iv, 1 mg/kg, 151 IV 1.0 mg/kg, SD rats, individual rats, read-out: Vss of 151): 0.696 L/kg | clearance (male, Sprague-Dawley, rat, in vivo, iv, 1 mg/kg, 151 IV 1.0 mg/kg, SD rats, mean, read-out: CL of 151 (converted)): 14.3 mL/min/kg | Vd (male, Sprague-Dawley, rat, in vivo, iv, 1 mg/kg, 151 IV 1.0 mg/kg, SD rats, mean, read-out: Vss of 151): 0.736 L/kg | half-life (male, Sprague-Dawley, rat, in vivo, iv, 1 mg/kg, 151 iv 1.0 mg/kg (n=2), read-out: elimination half-life (converted)): 53.4 min | clearance (male, Sprague-Dawley, rat, in vivo, iv, 1 mg/kg, 151 iv 1.0 mg/kg (n=2), read-out: mean clearance from rat plasma (converted)): 14.3 mL/min/kg | Vd (male, Sprague-Dawley, rat, in vivo, iv, 1 mg/kg, 151 iv 1.0 mg/kg (n=2), read-out: volume of distribution at steady state): 0.736 L/kg | MRT [2]: 0.91 h | AUC(0-t) [2]: 1290 ng·h/mL | AUC(0-inf) [2]: 1310 ng·h/mL | half-life (male, Sprague-Dawley, rat, in vivo, iv, 1 mg/kg, plasma, 151 IV 1.0 mg/kg, SD rats, individual rats, read-out: T1/2 of 151 (converted)): 54.6 min | MRT [3]: 0.86 h | AUC(0-t) [3]: 1170 ng·h/mL | AUC(0-inf) [3]: 1180 ng·h/mL | half-life (male, Sprague-Dawley, rat, in vivo, iv, 1 mg/kg, plasma, 151 IV 1.0 mg/kg, SD rats, mean, read-out: T1/2 of 151 (converted)): 53.4 min | concentration at 0.25 h (male, Sprague-Dawley, rat, in vivo, po, 10 mg/kg, 151 PO 10 mg/kg, SD rats, 0.25 h, individual rats): 2230 ng/mL | concentration at 0.25 h (male, Sprague-Dawley, rat, in vivo, po, 10 mg/kg, 151 PO 10 mg/kg, SD rats, 0.25 h, mean): 2330 ng/mL | concentration at 0.5 h (male, Sprague-Dawley, rat, in vivo, po, 10 mg/kg, 151 PO 10 mg/kg, SD rats, 0.50 h, individual rats): 2450 ng/mL | concentration at 0.5 h (male, Sprague-Dawley, rat, in vivo, po, 10 mg/kg, 151 PO 10 mg/kg, SD rats, 0.50 h, mean): 3240 ng/mL | concentration at 1 h (male, Sprague-Dawley, rat, in vivo, po, 10 mg/kg, 151 PO 10 mg/kg, SD rats, 1.0 h, individual rats): 2200 ng/mL | concentration at 1 h (male, Sprague-Dawley, rat, in vivo, po, 10 mg/kg, 151 PO 10 mg/kg, SD rats, 1.0 h, mean): 2440 ng/mL | concentration at 2 h (male, Sprague-Dawley, rat, in vivo, po, 10 mg/kg, 151 PO 10 mg/kg, SD rats, 2.0 h, individual rats): 1100 ng/mL | concentration at 2 h (male, Sprague-Dawley, rat, in vivo, po, 10 mg/kg, 151 PO 10 mg/kg, SD rats, 2.0 h, mean): 1310 ng/mL | concentration at 3 h (male, Sprague-Dawley, rat, in vivo, po, 10 mg/kg, 151 PO 10 mg/kg, SD rats, 3.0 h, individual rats): 521 ng/mL | concentration at 3 h (male, Sprague-Dawley, rat, in vivo, po, 10 mg/kg, 151 PO 10 mg/kg, SD rats, 3.0 h, mean): 658 ng/mL | concentration at 5 h (male, Sprague-Dawley, rat, in vivo, po, 10 mg/kg, 151 PO 10 mg/kg, SD rats, 5.0 h, individual rats): 125 ng/mL | concentration at 5 h (male, Sprague-Dawley, rat, in vivo, po, 10 mg/kg, 151 PO 10 mg/kg, SD rats, 5.0 h, mean): 139 ng/mL | concentration at 7 h (male, Sprague-Dawley, rat, in vivo, po, 10 mg/kg, 151 PO 10 mg/kg, SD rats, 7.0 h, mean): 43.8 ng/mL | concentration at 9 h (male, Sprague-Dawley, rat, in vivo, po, 10 mg/kg, 151 PO 10 mg/kg, SD rats, 9.0 h, individual rats): 52.1 ng/mL | concentration at 9 h (male, Sprague-Dawley, rat, in vivo, po, 10 mg/kg, 151 PO 10 mg/kg, SD rats, 9.0 h, mean): 52.1 ng/mL | half-life (male, Sprague-Dawley, rat, in vivo, po, 10 mg/kg, 151 oral 10 mg/kg, SD rats (n=3), read-out: mean half-life (converted)): 75.6 min | Cmax [4]: 2450 ng/mL | MRT [4]: 1.86 h | AUC(0-t) [4]: 5400 ng·h/mL | AUC(0-inf) [4]: 5500 ng·h/mL | half-life (male, Sprague-Dawley, rat, in vivo, po, 10 mg/kg, plasma, 151 PO 10 mg/kg, SD rats, individual rats, read-out: T1/2 of 151 (converted)): 79.8 min | Cmax [5]: 3240 ng/mL | MRT [5]: 1.81 h | AUC(0-t) [5]: 6340 ng·h/mL | AUC(0-inf) [5]: 6440 ng·h/mL | half-life (male, Sprague-Dawley, rat, in vivo, po, 10 mg/kg, plasma, 151 PO 10 mg/kg, SD rats, mean, read-out: T1/2 of 151 (converted)): 75.6 min | bioavailability (male, Sprague-Dawley, rat, in vivo, 151 oral 10 mg/kg, based on AUC0-∞, read-out: absolute bioavailability (F)): 54.6% | Tmax (male, Sprague-Dawley, rat, in vivo, plasma, 151 PO 10 mg/kg, SD rats, mean): 30 min | AUC0-t of 151 [6]: 1045 ng·h/mL | AUC0-∞ of 151 [6]: 1047 ng·h/mL | MRT of 151 [6]: 0.81 h | T1/2 of 151 [6]: 0.87 h | AUC0-t of 151 [7]: 6423 ng·h/mL and 7199 ng·h/mL | AUC0-∞ of 151 [7]: 6484 ng·h/mL and 7328 ng·h/mL | Cmax of 151 [7]: 3934 ng/mL and 3343 ng/mL | MRT of 151 [7]: 1.62 h and 1.95 h | T1/2 of 151 [7]: 1.10 h and 1.35 h
